Values of other authors as cited in patent US20240228667A9, “Methods for Treating Multiple Myeloma” (Celgene Corporation, priority 2021, published 2024).

Test system: acute myeloid leukemia (AML) at relapse
Conditions: CT-011 administered alone

Substance: CT-011: anti-PD-1 antibody, a humanized antibody
- response in treating acute myeloid leukemia (AML) at relapse: failed to show response
